Reference: patent US8686143B2, “Compounds useful as inhibitors of Janus kinases” (Vertex Pharmaceuticals Incorporated, priority 2007, dated 2014)

These compounds were tested against T1, JAK3 (Homo sapiens, UniProt P52333) (assay: JAK3 Inhibition Assay (33P incorporation into poly(Glu)4Tyr)). Details: 1 nM JAK3, 5 μM ATP, 1 μM poly(Glu)4Tyr, 25° C.
T1 sequence (P52333 1-1124): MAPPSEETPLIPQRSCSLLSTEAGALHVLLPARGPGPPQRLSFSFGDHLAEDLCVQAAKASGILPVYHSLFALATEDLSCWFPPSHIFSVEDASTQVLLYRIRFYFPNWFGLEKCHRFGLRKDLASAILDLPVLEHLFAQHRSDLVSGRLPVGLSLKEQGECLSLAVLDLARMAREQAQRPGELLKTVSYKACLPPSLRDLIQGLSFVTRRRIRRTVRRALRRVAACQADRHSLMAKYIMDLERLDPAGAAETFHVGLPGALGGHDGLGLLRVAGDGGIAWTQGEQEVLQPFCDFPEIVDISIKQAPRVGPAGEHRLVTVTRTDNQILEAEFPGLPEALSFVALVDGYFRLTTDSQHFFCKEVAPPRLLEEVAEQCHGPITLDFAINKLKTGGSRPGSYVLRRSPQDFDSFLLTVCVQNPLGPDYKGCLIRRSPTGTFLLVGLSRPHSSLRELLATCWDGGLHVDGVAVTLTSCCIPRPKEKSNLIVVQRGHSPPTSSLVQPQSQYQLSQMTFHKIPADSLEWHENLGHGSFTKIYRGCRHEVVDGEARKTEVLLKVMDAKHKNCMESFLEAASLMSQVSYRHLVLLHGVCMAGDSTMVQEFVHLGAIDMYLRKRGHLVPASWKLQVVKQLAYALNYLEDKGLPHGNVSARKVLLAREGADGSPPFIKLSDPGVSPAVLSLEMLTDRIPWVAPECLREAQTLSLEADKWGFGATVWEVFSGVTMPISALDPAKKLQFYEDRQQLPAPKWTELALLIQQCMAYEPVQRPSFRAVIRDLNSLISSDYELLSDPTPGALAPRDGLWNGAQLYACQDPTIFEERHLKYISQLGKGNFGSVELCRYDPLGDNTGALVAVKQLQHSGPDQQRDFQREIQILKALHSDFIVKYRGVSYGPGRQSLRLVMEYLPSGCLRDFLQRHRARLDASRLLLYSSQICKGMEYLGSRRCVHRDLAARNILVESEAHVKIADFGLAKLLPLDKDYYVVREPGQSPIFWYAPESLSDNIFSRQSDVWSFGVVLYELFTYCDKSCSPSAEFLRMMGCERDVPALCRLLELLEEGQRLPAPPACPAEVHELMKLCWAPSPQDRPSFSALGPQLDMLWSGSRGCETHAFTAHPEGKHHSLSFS
Format: biochemical
Protocol: Compounds were screened for their ability to inhibit JAK3 using the assay shown below. Reactions were carried out in a kinase buffer containing 100 mM HEPES (pH 7.4), 1 mM DTT, 10 mM MgCl2, 25 mM NaCl, and 0.01% BSA. Substrate concentrations in the assay were 5 μM ATP (200 uCi/μmole ATP) and 1 μM poly(Glu)4Tyr. Reactions were carried out at 25° C. and 1 nM JAK3.
To each well of a 96 well polycarbonate plate was added 1.5 μl of a candidate JAK3 inhibitor along with 50 μlof kinase buffer containing 2 μM poly(Glu)4Tyr and 10 μM ATP. This was then mixed and 50 μl of kinase buffer containing 2 nM JAK3 enzyme was added to start the reaction. After 20 minutes at room temperature (25° C.), the reaction was stopped with 50 μl of 20% trichloroacetic acid (TCA) that also contained 0.4 mM ATP. The entire contents of each well were then transferred to a 96 well glass fiber filter plate using a TomTek Cell Harvester. After washing, 60 μl of scintillation fluid was added and ^33P incorporation detected on a Perkin Elmer TopCount.

Ki [µM] | SMILES
1 to 10 | CC(C)[C@@H](Nc1ccnc(-c2ccc3nc(N)sc3c2)n1)C(=O)NCC(F)(F)F [Compound 73]
≤ 1 | COc1ccc(Nc2nc(N)n(-c3nccc(N[C@H](C(=O)NCC(F)(F)F)C(C)C)n3)n2)cc1 [Compound 42]
10 to 50 | O=C(NCC(F)(F)F)[C@H]1CCCN1c1nc(-c2ccc3c(c2)OCO3)ncc1F [Compound 88]
1 to 10 | C[C@H](Nc1nc(-n2nc(Nc3ccc(F)cc3)nc2N)ncc1F)C(=O)NCC(F)(F)F [Compound 45]
10 to 50 | O=C(CCNc1nc(-c2cccnc2)ncc1F)NCC(F)(F)F [Compound 15]
10 to 50 | O=C(NCC(F)(F)F)[C@H]1CCCN1c1nc(-c2ccc3nccnc3c2)ncc1F [Compound 165]
1 to 10 | O=C(NCC(F)(F)F)[C@H]1CCCN1c1ccnc(-c2ccc(O)cc2)n1 [Compound 147]
1 to 10 | CC(C)[C@@H](Nc1ccnc(-c2c[nH]c(C(=O)N3CCCC3)c2)n1)C(=O)NCC(F)(F)F [Compound 113]
≤ 1 | CC(C)[C@@H](Nc1ccnc(-c2c[nH]c(C(=O)N3CC=CC3)c2)n1)C(=O)NCC(F)(F)F [Compound 114]
1 to 10 | CC(C)[C@@H](Nc1ccnc(-c2ccc3nccnc3c2)n1)C(=O)NCC(F)(F)F [Compound 164]
10 to 50 | CC(C)[C@@H](Nc1ccnc(-c2c[nH]c(=O)c(N)c2)n1)C(=O)NCC(F)(F)F [Compound 135]
10 to 50 | O=C(NCC(F)(F)F)[C@H]1CCCN1c1ccnc(-c2c[nH]c3ccc(Cl)cc23)n1 [Compound 159]
10 to 50 | CC(C)[C@@H](Nc1nc(-c2c[nH]c(C(=O)NC3CC3)c2)ncc1F)C(=O)NCC(F)(F)F [Compound 126]
1 to 10 | Nc1cccc(Nc2nc(N)n(-c3ncc(F)c(N4CCCC4C(=O)NCC(F)(F)F)n3)n2)c1 (stereo not shown) [Compound 57]
10 to 50 | COc1ccc(-c2nccc(NC(C)(C)C(=O)NCC(F)(F)F)n2)cn1 [Compound 80]
≤ 1 | O=C(NCC(F)(F)F)[C@H]1CCCN1c1ccnc(-c2c[nH]c(C(=O)N3CC=CC3)c2)n1 [Compound 139]
1 to 10 | COc1ccc(Nc2nc(N)n(-c3ncc(F)c(N4CCC[C@@H]4C(=O)NCC(F)(F)F)n3)n2)cc1 [Compound 39]
≤ 1 | CC(C)(Nc1ccnc(-c2c[nH]c(C(=O)N3CC=CC3)c2)n1)C(=O)NCC(F)(F)F [Compound 102]
≤ 1 | CC(C)(Nc1nc(-c2ccc(O)cc2)ncc1F)C(=O)NCC(F)(F)F [Compound 123]

Ki [µM] | SMILES
10 to 50 | C[C@H](Nc1nc(-c2ccc(N)nc2)ncc1F)C(=O)NCC(F)(F)F [Compound 6]
≤ 1 | Nc1nc(Nc2ccc(F)cc2)nn1-c1cc(NCCC(=O)NCC(F)(F)F)ncn1 [Compound 35]
1 to 10 | CC(=O)Nc1nc2ccc(-c3nccc(N[C@@H](C(=O)NCC(F)(F)F)C(C)C)n3)cc2s1 [Compound 65]
10 to 50 | CC(C)[C@@H](Nc1ccnc(-c2ccc(=O)[nH]c2)n1)C(=O)NCC(F)(F)F [Compound 85]
10 to 50 | CNC(=O)c1cc(-c2ncc(F)c(N[C@@H](C(=O)NCC(F)(F)F)C(C)C)n2)c[nH]1 [Compound 103]
10 to 50 | CC(C)[C@@H](Nc1nc(-c2c[nH]c(=O)c(N)c2)ncc1F)C(=O)NCC(F)(F)F [Compound 137]
1 to 10 | CC(C)(Nc1ccnc(-c2c[nH]c3ccc(Cl)cc23)n1)C(=O)NCC(F)(F)F [Compound 158]
≤ 1 | O=C(NCC(F)(F)F)[C@H]1CCCN1c1ccnc(-c2ccc3ncsc3c2)n1 [Compound 155]
10 to 50 | CC(C)[C@@H](Nc1ccnc(-c2c[nH]c3ccc(Cl)cc23)n1)C(=O)NCC(F)(F)F [Compound 161]
1 to 10 | O=C(NCc1ccccc1)c1cc(-c2nccc(N3CCC[C@@H]3C(=O)NCC(F)(F)F)n2)c[nH]1 [Compound 121]
10 to 50 | O=C(NCC(F)(F)F)[C@H]1CCCN1c1ccnc(-c2ccc(=O)[nH]c2)n1 [Compound 83]
1 to 10 | CNC(=O)c1cc(-c2nccc(N[C@@H](C(=O)NCC(F)(F)F)C(C)C)n2)c[nH]1 [Compound 109]
≤ 1 | C[C@H](Nc1cc(-n2nc(Nc3ccc(F)cc3)nc2N)ncn1)C(=O)NCC(F)(F)F [Compound 33]
10 to 50 | CC(C)[C@@H](Nc1nc(-c2ccc(O)cc2)ncc1F)C(=O)NCC(F)(F)F [Compound 142]
10 to 50 | C[C@H](Nc1nc(-c2ccnc(Cl)c2)ncc1F)C(=O)NCC(F)(F)F [Compound 2]
1 to 10 | CC(C)(Nc1ccnc(-c2cccnc2N)n1)C(=O)NCC(F)(F)F [Compound 31]
1 to 10 | CCNC(=O)c1cc(-c2ncc(F)c(NC(C)(C)C(=O)NCC(F)(F)F)n2)c[nH]1 [Compound 93]
1 to 10 | CC(C)(Nc1nc(-c2ccc3c(c2)OCO3)ncc1F)C(=O)NCC(F)(F)F [Compound 67]

Same assay, conditions: at concentrations of 5.0 μM

inhibition of JAK3 at concentrations of 5.0 μM | SMILES
did not inhibit | Nc1nc(Nc2cccnc2)nn1-c1ncc(F)c(N2CCC[C@@H]2C(=O)NCC(F)(F)F)n1 [Compound 46]
did not inhibit | COc1ccc(Nc2nc(N)n(-c3ncc(F)c(N4CCC[C@@H]4C(=O)NCC(F)(F)F)n3)n2)c(C)c1 [Compound 40]
did not inhibit | CCCNc1nc(N)n(-c2ncc(F)c(N3CCC[C@@H]3C(=O)NCC(F)(F)F)n2)n1 [Compound 54]
did not inhibit | Nc1nc(NCC2CCCCC2)nn1-c1ncc(F)c(N2CCC[C@@H]2C(=O)NCC(F)(F)F)n1 [Compound 48]
did not inhibit | CC(C)Nc1nc(N)n(-c2ncc(F)c(N3CCC[C@@H]3C(=O)NCC(F)(F)F)n2)n1 [Compound 53]

Same assay, conditions: at concentrations of 50 μM

inhibition of JAK3 at concentrations of 50 μM | SMILES
did not inhibit | COc1ccc(-c2nccc(N3CCC[C@@H]3C(=O)NCC(F)(F)F)n2)cc1 [Compound 150]
did not inhibit | CC(C)(Nc1nc(-c2ccc3c(c2)OCCO3)ncc1F)C(=O)NCC(F)(F)F [Compound 125]
did not inhibit | O=C(CCNc1nc(-c2cn[nH]c2)ncc1F)NCC(F)(F)F [Compound 16]
did not inhibit | CC(C)[C@@H](Nc1nc(-c2c[nH]c3ccc(Cl)cc23)ncc1F)C(=O)NCC(F)(F)F [Compound 160]
did not inhibit | C[C@H](Nc1nc(-c2ccncc2)ncc1F)C(=O)NCC(F)(F)F [Compound 3]
did not inhibit | CC(C)(Nc1nc(-c2c[nH]c(C(=O)NCc3ccccc3)c2)ncc1F)C(=O)NCC(F)(F)F [Compound 95]
did not inhibit | O=C(NCC(F)(F)F)[C@H]1CCCN1c1nc(-c2cccnc2)ncc1F [Compound 23]
did not inhibit | C[C@H](Nc1nc(-c2ccc(F)nc2)ncc1F)C(=O)NCC(F)(F)F [Compound 1]
did not inhibit | O=C(NCC(F)(F)F)[C@@H]1CCCN1c1nc(-c2ccc(F)nc2)ncc1F [Compound 25]
did not inhibit | O=C(CCNc1nc(-c2ccc(F)nc2)ncc1F)NCC(F)(F)F [Compound 13]
did not inhibit | Nc1cc(-c2ncc(F)c(N3CCC[C@@H]3C(=O)NCC(F)(F)F)n2)c[nH]c1=O [Compound 138]
did not inhibit | COc1ccc(-c2nccc(N3CCC[C@@H]3C(=O)NCC(F)(F)F)n2)cn1 [Compound 62]
did not inhibit | COc1ccc(-c2ncc(F)c(NCCC(=O)NCC(F)(F)F)n2)cn1 [Compound 14]
